The subject of data set [1] is nuclear transcription factor NF-κB. The data set is described as follows: NF-κB-guided transcription (luciferase reporter) induced by H. pylori. To be noted: 50 μM, positive control. The class given is cell-based. The protocol: The nuclear transcription factor NF-κB is involved in inflammation of the gastric epithelium induced by H. pylori and is also responsible for increased expression of pro-inflammatory genes, including IL-8, in the gastric cells. […] The cells were 20 subjected to transient transfection with a plasmid containing three KB responsive sites upstream of the gene encoding for luciferase; the cells then underwent treatment with the pathogen, and the transcription was measured after 6 hours by luminescence.
A general note: A reporter such as luciferase makes a cellular process visible.

Data set [2] has as its system IL-8 release induced by H. pylori in GES-1 cells. The data set is described as follows: IL-8 release induced by H. pylori in GES-1 cells. The class given is cell-based, human. To be noted: for effect on IL-8 release induced by the pathogen: 10-50 μM. The protocol:
At the same concentrations, the extract inhibits IL-8 release induced by H. pylori in GES-1 cells; the pathogen induces IL-8 release in gastric epithelial cells, of about a 20-fold increase compared with the unstimulated control. […] EGCG 50 μM (50% inhibition) was used as a positive control.

Data set [3] has as its system H. pylori. As to the kind of experiment: Antibacterial activity (MIC) on a strain of H. pylori. The note with it: Helicobacter pylori; for MIC: read-out: MIC on H. pylori. The class given is cell-based. Here is the method: The antibacterial activity of the chestnut extract was evaluated by measuring the MIC (Minimum Inhibitory Concentration) on a strain of H. pylori.

Data set [4] relates to non-tumoral human gastric epithelial cells GES-1. The class given is cell-based. To be noted: 10-50 μM concentration range. The protocol:
Firstly, the extract was analysed to establish its possible cytotoxicity (using the MTT colorimetric assay) towards non-tumoral human gastric epithelial cells GES-1 in the presence of H. pylori (ratio 1:50).

In brackets after ≈: the same amount, converted by molar mass. Read-outs that look alike come from different tables or passages of the source.

Results on 4 molecules are retold here after patent US20240382548A1, “COMPOSITIONS COMPRISING CASTANEA SATIVA EXTRACTS FOR TREATMENT OF HELICOBACTER PYLORI INFECTIONS” (priority 2021, published 2024).

In the case of `O=C(O[C@@H]1Cc2c(O)cc(O)cc2O[C@@H]1c1cc(O)c(O)c(O)c1)c1cc(O)c(O)c(O)c1` [EGCG, epigallocatechin gallate, reference compound], in data set [1], the “inhibition of NF-κB-guided transcription” value is 63%. In data set [2] (50 μM, positive control), the “inhibition of IL-8 release” value was 50%.
As to `CN(C)[C@@H]1C(O)=C(C(N)=O)C(=O)[C@@]2(O)C(O)=C3C(=O)c4c(O)cccc4[C@@](C)(O)[C@H]3C[C@@H]12` [Tetracycline, reference compound], the inhibition at 0.25 µg/mL in data set [3] (0.25 μg/mL, positive control, read-out: inhibition of the growth of the pathogen) is 80%.
For the molecule `O=C1OC[C@H]2OC(=O)c3cc(O)c(O)c(O)c3-c3c(O)c(O)c(O)c4c3C(=O)O[C@H]([C@H]3OC(=O)c5c-4c(O)c(O)c(O)c5[C@H]3O)[C@@H]2OC(=O)c2cc(O)c(O)c(O)c2-c2c1cc(O)c(O)c2O` [castalagin], the MIC in data set [3] (same experimental conditions as the extract) worked out at 25 µM (≈ 23.4 µg/mL). Besides, in data set [2], the “effect on IL-8 release induced by the pathogen” value was “concentration-dependent inhibition”. Besides, in data set [4], the toxicity entry is recorded as “did not exhibit any toxicity”.
Consider `O=C1OCC2OC(=O)c3cc(O)c(O)c(O)c3-c3c(O)c(O)c(O)c4c3C(=O)OC(C2OC(=O)c2cc(O)c(O)c(O)c2-c2c1cc(O)c(O)c2O)C1OC(=O)c2c-4c(O)c(O)c(O)c2C1O` (stereo not drawn) [vescalagin], for which the MIC in data set [3] amounted to 25 µM (≈ 23.4 µg/mL). Also, in data set [2], the “effect on IL-8 release induced by the pathogen” value is given as “concentration-dependent inhibition”. Moreover, the toxicity result in data set [4] is “did not exhibit any toxicity”.

As usually defined, the inhibition is the share of the control response that was lost under treatment. A word on the MIC: it is the lowest concentration found to suppress growth.
